Measured values reported in patent publication US20250215029A1 (Recludix Pharma, Inc., priority 2022, published 2025).
Like-named read-outs stand apart in the source and are kept apart here.

What was measured:
[1] = molecular target: T1, Recombinant STAT6 protein (STAT6 (W123-T658)) (Homo sapiens, UniProt P42226); assay: STAT6 Fluorescence Polarization (FP) Assay; assay type: binding; details: 45-minute incubation
T1 construct: Recombinant STAT6 protein (STAT6 (W123-T658))
T1 sequence (P42226 123-658): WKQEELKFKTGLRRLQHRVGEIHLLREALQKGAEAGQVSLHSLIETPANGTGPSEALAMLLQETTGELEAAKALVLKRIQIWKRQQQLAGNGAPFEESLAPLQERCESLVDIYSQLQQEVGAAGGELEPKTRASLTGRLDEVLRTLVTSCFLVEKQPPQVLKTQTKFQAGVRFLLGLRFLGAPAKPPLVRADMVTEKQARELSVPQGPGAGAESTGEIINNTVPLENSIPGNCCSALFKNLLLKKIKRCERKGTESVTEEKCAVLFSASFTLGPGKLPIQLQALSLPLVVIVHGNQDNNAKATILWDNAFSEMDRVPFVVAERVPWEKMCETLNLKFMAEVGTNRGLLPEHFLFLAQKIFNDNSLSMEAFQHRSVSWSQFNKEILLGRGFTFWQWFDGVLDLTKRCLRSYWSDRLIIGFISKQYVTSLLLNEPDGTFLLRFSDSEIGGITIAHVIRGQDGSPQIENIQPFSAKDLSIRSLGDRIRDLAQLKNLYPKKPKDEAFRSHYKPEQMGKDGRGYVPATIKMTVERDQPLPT
How it was run: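 Serially diluted compounds received a premix of STAT6 (W123-T658, 250 nM) and 5-FAM peptide probe (2 nM) in pH 7.4 HEPES buffer containing DTT and Tween 20. Following 45 min at room temperature, FP was recorded. IC50s were fitted by nonlinear regression; values are binned A (≤300 nM), B (>300-3000 nM), C (>3-30 μM), D (>30 μM).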

[2] = molecular target: T2, Recombinant STAT3 protein (STAT3 (G127-I722)) (Homo sapiens, UniProt P40763); assay: STAT3 Fluorescence Polarization (FP) Assay; assay type: binding; details: probe 5-FAM-GpYLPQTV-NH2 2 nM, 45-minute incubation
T2 construct: Recombinant STAT3 protein (STAT3 (G127-I722))
How it was run: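 Read-out is fluorescence polarization (mP) after 45 min at room temperature, with IC50 fitted by nonlinear regression against log compound concentration. Mixture: 25 nM STAT3 (G127-I722), 2 nM 5-FAM-GpYLPQTV-NH2 phosphopeptide, 10 mM HEPES pH 7.4 buffer, 1% DMSO.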

[3] = STAT6 (W123-T658) 250 nM, probe 5-FAM-Ap[…]-NH2 2 nM, read-out: STAT6 (FP assay IC50 class)
[4] = STAT3 (G127-I722) 25 nM, read-out: STAT3 (FP assay IC50 class)
[5] = STAT6 250 nM, probe 5-FAM-Ap[…]-NH2 2 nM, read-out: STAT6 (FP assay IC50)
[6] = STAT3 25 nM, read-out: STAT3 (FP assay IC50)

T2 sequence (P40763 127-722): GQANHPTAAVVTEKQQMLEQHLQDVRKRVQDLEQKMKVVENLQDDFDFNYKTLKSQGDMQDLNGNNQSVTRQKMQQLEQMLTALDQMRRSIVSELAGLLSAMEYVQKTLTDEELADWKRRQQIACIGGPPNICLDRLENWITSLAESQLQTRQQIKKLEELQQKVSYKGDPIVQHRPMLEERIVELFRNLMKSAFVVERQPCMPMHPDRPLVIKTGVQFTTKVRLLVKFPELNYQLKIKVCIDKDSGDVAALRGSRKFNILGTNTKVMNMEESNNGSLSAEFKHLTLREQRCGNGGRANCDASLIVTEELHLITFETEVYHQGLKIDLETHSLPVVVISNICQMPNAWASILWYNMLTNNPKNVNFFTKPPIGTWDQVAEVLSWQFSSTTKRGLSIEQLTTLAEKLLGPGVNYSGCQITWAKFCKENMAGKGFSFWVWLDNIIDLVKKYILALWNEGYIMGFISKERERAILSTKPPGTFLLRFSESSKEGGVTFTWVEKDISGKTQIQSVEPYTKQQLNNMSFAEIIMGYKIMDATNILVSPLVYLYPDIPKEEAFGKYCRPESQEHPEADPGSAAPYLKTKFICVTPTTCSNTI

| Compound | IC50 [1, 3] [nM] | IC50 [2, 4] [nM] | IC50 [1, 5] [nM] | IC50 [2, 6] [nM] | IC50 ([1]; STAT6 (W123-T658) 250 nM, probe 5-FAM-ApYKPFQDLI-NH2 2 nM, read-out: STAT6 (FP assay IC50 class)) [nM] |
| --- | --- | --- | --- | --- | --- |
| CN(CCc1cc[nH]c(=O)c1)C(=O)[C@@H]1CC[C@@H]2CCCC[C@H](NC(=O)c3cc4cc(C(F)(F)P(=O)(O)O)ccc4s3)C(=O)N21 [Compound 788, (difluoro(2-(((3S,6S,10aS)-3-(methyl(2-(2-oxo-1,2-dihydropyridin-4-yl)ethyl)carbamoyl)-5-oxodecahydropyrrolo [1,2-a]azocin-6-yl)carbamoyl)benzo [b]thiophen-5-yl)methyl) phosphonic acid] | 300 to 3000 | 1000 to 10000 | – | – | – |
| C[C@H]1CC[C@H](NC(=O)c2cc3cc(CP(=O)(O)O)ccc3s2)C(=O)N2[C@H](CC[C@H]2C(=O)N2CC(c3cnccc3F)C2)C1 [Compound 585, ((2-(((3S,6S,9S,10aR)-3-(3-(4-fluoropyridin-3-yl)azetidine-1-carbonyl)-9-methyl-5-oxodecahydropyrrolo[1,2-a]azocin-6-yl)carbamoyl)benzo[b]thiophen-5-yl)methyl)phosphonic acid] | 3000 to 30000 | < 100 | – | – | – |
| O=C(N[C@H]1CCCC[C@H]2CC[C@@H](C(=O)N3CCC(c4ccn(C5CC5)c(=O)c4)C3)N2C1=O)c1ccc2ccc(C(F)P(=O)(O)O)cc2c1 (stereo partly drawn) [Compound 906, ((7-(((3S,6S,10aS)-3-(3-(1-cyclopropyl-2-oxo-1,2-dihydropyridin-4-yl)pyrrolidine-1-carbonyl)-5-oxodecahydropyrrolo[1,2-a]azocin-6-yl)carbamoyl)naphthalen-2-yl)fluoromethyl) phosphonic acid] | 300 to 3000 | 1000 to 10000 | – | – | – |
| COc1c(C2CN(C(=O)[C@@H]3CC[C@@H]4CCC[C@H](NC(=O)c5cc6cc(C(F)P(=O)(O)O)ccc6s5)C(=O)N43)C2)ccnc1F (stereo partly drawn) [Compound 925, (fluoro(2-(((3S,6S,9aS)-3-(3-(2-fluoro-3-methoxypyridin-4-yl)azetidine-1-carbonyl)-5-oxooctahydro-1H-pyrrolo[1,2-a]azepin-6-yl)carbamoyl)benzo [b]thiophen-5-yl)methyl) phosphonic acid] | 3000 to 30000 | < 100 | – | – | – |
| O=C(N[C@H]1CCC[C@H]2CC[C@@H](C(=O)N3CC(n4ncc5ccccc54)C3)N2C1=O)c1cc2cc(C(F)(F)P(=O)(O)O)ccc2s1 [Compound 821, ((2-(((3S,6S,9aS)-3-(3-(1H-indazol-1-yl)azetidine-1-carbonyl)-5-oxooctahydro-1H-pyrrolo[1,2-a]azepin-6-yl)carbamoyl)benzo [b]thiophen-5-yl)difluoromethyl) phosphonic acid] | 300 to 3000 | 100 to 1000 | – | – | – |
| O=C(N[C@H]1CCC[C@H]2CC[C@@H](C(=O)N[C@@H]3CC[C@H](O)C3)N2C1=O)c1cc2cc(C(F)P(=O)(O)O)ccc2s1 (stereo partly drawn) [Compound 531, (fluoro(2-(((3S,6S,9aS)-3-(((1R,3S)-3-hydroxycyclopentyl)carbamoyl)-5-oxooctahydro-1H-pyrrolo[1,2-a]azepin-6-yl)carbamoyl)benzo[b]thiophen-5-yl)methyl)phosphonic acid] | 3000 to 30000 | 1000 to 10000 | – | – | – |
| O=C(N[C@H]1CCC[C@H]2CC[C@@H](C(=O)NCc3c[nH]c4ncccc34)N2C1=O)c1cc2cc(C(F)(F)P(=O)(O)O)ccc2s1 [Compound 31, ((2-(((3S,6S,9aS)-3-(((1H-pyrrolo[2,3-b]pyridin-3-yl)methyl)carbamoyl)-5-oxooctahydro-1H-pyrrolo[1,2-a]azepin-6-yl)carbamoyl)benzo [b]thiophen-5-yl)difluoromethyl) phosphonic acid] | – | – | 300 to 3000 | 100 to 1000 | – |
| Cn1c(C2CN(C(=O)[C@@H]3CC[C@@H]4CCCC[C@H](NC(=O)c5cc6cc(CP(=O)(O)O)ccc6s5)C(=O)N43)C2)nc2ccccc21 [Compound 662, ((2-(((3S,6S,10aS)-3-(3-(1-methyl-1H-benzo[d]imidazol-2-yl)azetidine-1-carbonyl)-5-oxodecahydropyrrolo [1,2-a]azocin-6-yl)carbamoyl)benzo [b]thiophen-5-yl)methyl) phosphonic acid] | 3000 to 30000 | 1000 to 10000 | – | – | – |
| N#C[C@@H]1[C@@H](c2cccnc2)CN(C(=O)[C@@H]2CC[C@@H]3CCC[C@H](NC(=O)c4cc5cc([C@@H](F)P(=O)(O)O)ccc5s4)C(=O)N32)C12CC2 (single isomer, unassigned) [Compound 837] | ≤ 300 | 1000 to 10000 | – | – | – |
| O=C(N[C@H]1CCCC[C@H]2CC[C@@H](C(=O)NCc3cnc4[nH]ccc4c3)N2C1=O)c1cc2cc(C(F)(F)P(=O)(O)O)ccc2s1 [Compound 1114, ((2-(((3S,6S,10aS)-3-(((1H-pyrrolo[2,3-b]pyridin-5-yl)methyl)carbamoyl)-5-oxodecahydropyrrolo[1,2-a]azocin-6-yl)carbamoyl)benzo[b]thiophen-5-yl)difluoromethyl)phosphonic acid] | 300 to 3000 | 100 to 1000 | – | – | – |
| N#C[C@H]1CN(C(=O)[C@@H]2CCC[C@@H]3CCCC[C@H](NC(=O)c4cc5cc(C(F)P(=O)(O)O)ccc5s4)C(=O)N32)C[C@@H]1c1ccccc1 (relative stereo) [Compound 552, ((2-(((4S,7S,11aS)-4-((rel-trans)-3-cyano-4-phenylpyrrolidine-1-carbonyl)-6-oxodecahydro-2H-pyrido[1,2-a]azocin-7-yl)carbamoyl)benzo[b]thiophen-5-yl)fluoromethyl)phosphonic acid] | ≤ 300 | 1000 to 10000 | – | – | – |
| C[C@]1(NC(=O)c2cc3cc(C(F)(F)P(=O)(O)O)ccc3s2)CCCC[C@H]2CC[C@@H](C(=O)N3C[C@H](c4ccccc4)[C@@H](C#N)C3)N2C1=O (relative stereo) [Compound 84, ((2-(((3S,6S,10aS)-3-(rel-(trans)-3-cyano-4-phenylpyrrolidine-1-carbonyl)-6-methyl-5-oxodecahydropyrrolo [1,2-a]azocin-6-yl)carbamoyl)benzo[b]thiophen-5-yl)difluoromethyl) phosphonic acid] | – | – | 300 to 3000 | 100 to 1000 | – |
| N#C[C@H]1CN(C(=O)[C@@H]2CC[C@@H]3CCCCC[C@H](NC(=O)c4cc5cc(C(F)(F)P(=O)(O)O)ccc5s4)C(=O)N32)C[C@@H]1c1ccccc1 (racemic) [Compound 75, ((2-(((3S,6S,11aS)-3-(rel-(trans)-3-cyano-4-phenylpyrrolidine-1-carbonyl)-5-oxodecahydro-1H-pyrrolo[1,2-a]azonin-6-yl)carbamoyl)benzo[b]thiophen-5-yl)difluoromethyl) phosphonic acid] | – | – | ≤ 300 | 1000 to 10000 | – |
| Cn1ccc(N2CC[C@@H](NC(=O)[C@@H]3CC[C@@H]4CCCC[C@H](NC(=O)c5cc6cc(C(F)P(=O)(O)O)ccc6s5)C(=O)N43)C2)n1 (stereo partly drawn) [Compound 533, (fluoro(2-(((3S,6S,10aS)-3-(((R)-1-(1-methyl-1H-pyrazol-3-yl)pyrrolidin-3-yl)carbamoyl)-5-oxodecahydropyrrolo[1,2-a]azocin-6-yl)carbamoyl)benzo[b]thiophen-5-yl)methyl)phosphonic acid] | 300 to 3000 | 1000 to 10000 | – | – | – |
| O=C(N[C@H]1CCC[C@H]2CC[C@@H](C(=O)N3CC(n4cccn4)C3)N2C1=O)c1cc2cc(C(F)P(=O)(O)O)ccc2s1 (stereo partly drawn) [Compound 613, ((2-(((3S,6S,9aS)-3-(3-(1H-pyrazol-1-yl)azetidine-1-carbonyl)-5-oxooctahydro-1H-pyrrolo[1,2-a]azepin-6-yl)carbamoyl)benzo [b]thiophen-5-yl)fluoromethyl) phosphonic acid] | 3000 to 30000 | 100 to 1000 | – | – | – |
| COc1cncc([C@@H]2CN(C(=O)[C@@H]3CC[C@@H]4CCC[C@H](NC(=O)c5cc6cc([C@H](F)P(=O)(O)O)ccc6s5)C(=O)N43)C3(CC3)[C@H]2C#N)c1 (single isomer, unassigned) [Compound 847] | – | 1000 to 10000 | – | – | 300 to 3000 |
| Cc1cccnc1C1CN(C(=O)[C@@H]2CC[C@@H]3CCC[C@H](NC(=O)c4cc5cc(CP(=O)(O)O)ccc5s4)C(=O)N32)C1 [Compound 657, ((2-(((3S,6S,9aS)-3-(3-(3-methylpyridin-2-yl)azetidine-1-carbonyl)-5-oxooctahydro-1H-pyrrolo[1,2-a]azepin-6-yl)carbamoyl)benzo [b]thiophen-5-yl)methyl) phosphonic acid] | 3000 to 30000 | 1000 to 10000 | – | – | – |
